From patent publication US9545120B2, “Method of lowering glycemic index of foods” (BASF SE, priority 2002, dated 2017)
Read-outs that look alike come from different tables or passages of the source.

How the values were obtained:
[1] = target: T1, Alpha-glucosidase Type 1 from bakers yeast (Saccharomyces cerevisiae, UniProt P53341); assay: Alpha-glucosidase assay; type: biochemical; details: for inhibition at 1600 µM: read-out: % inhibition of alpha-glucosidase at flavonoid concentration 1.6 mM (454 μg/mL); for remaining activity at 7.8 µg/mL / remaining activity at 15.6 µg/mL / remaining activity at 31.3 µg/mL / remaining activity at 62.5 µg/mL / remaining activity at 125 µg/mL / remaining activity at 250 µg/mL / remaining activity at 500 µg/mL: read-out: alpha-glucosidase % control; for inhibition at 7.8 µg/mL / inhibition at 15.6 µg/mL / inhibition at 31.3 µg/mL / inhibition at 62.5 µg/mL / inhibition at 125 µg/mL / inhibition at 250 µg/mL / inhibition at 500 µg/mL: read-out: alpha-glucosidase % inhibition
T1 construct: purchased Sigma
T1 sequence (P53341 whole entry): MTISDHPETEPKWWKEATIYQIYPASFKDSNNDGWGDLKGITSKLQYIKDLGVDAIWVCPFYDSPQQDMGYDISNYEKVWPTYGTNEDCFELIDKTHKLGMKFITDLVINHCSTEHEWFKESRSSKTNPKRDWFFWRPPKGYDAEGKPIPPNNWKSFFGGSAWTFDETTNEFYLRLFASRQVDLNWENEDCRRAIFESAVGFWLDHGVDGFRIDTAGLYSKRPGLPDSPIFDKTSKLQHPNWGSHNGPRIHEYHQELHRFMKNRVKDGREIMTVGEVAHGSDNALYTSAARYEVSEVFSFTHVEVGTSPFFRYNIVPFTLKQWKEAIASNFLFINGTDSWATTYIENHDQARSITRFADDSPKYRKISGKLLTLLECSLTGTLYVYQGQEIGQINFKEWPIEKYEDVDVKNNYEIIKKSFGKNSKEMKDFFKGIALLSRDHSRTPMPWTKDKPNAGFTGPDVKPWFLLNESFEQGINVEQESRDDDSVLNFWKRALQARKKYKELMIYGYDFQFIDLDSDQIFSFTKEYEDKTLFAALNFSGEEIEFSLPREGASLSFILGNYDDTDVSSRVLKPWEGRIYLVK
Procedure: Alpha-glucosidase Type 1 from bakers yeast, substrate (p-nitrophenyl-alpha-D-glucopyranoside) and a control inhibitor, castanospermine were purchased from Sigma. For the assay, enzyme dissolved in 50 mM acetate buffer, pH 4.5 was incubated for 30 min, at 37° C. in the presence of substrate and in the presence vs. absence of inhibitors (flavonoids or castanospermine at various concentrations). The reaction was carried out in 50 mM acetate buffer, pH 4.5. Final concentration of alpha glucosidase was 0.2 U/ml; final concentration of the substrate was 2 mM. Flavonoids concentrations ranged from 7.8 to 500 μg/ml and castanospermine was used at final concentration 1 μg/ml. The reaction was stopped by addition of 0.2 M Na2CO3 and absorbance was measured at 405 nm. Background absorbance (without enzyme) was subtracted for every flavonoid concentration used. The inhibitory activity was expressed as 100 minus relative absorbance difference between tested samples and controls.

[2] = target: T2, Alpha-amylase from porcine pancreas (Sus scrofa, UniProt P00690); assay: Alpha-amylase assay; type: biochemical; details: for inhibition at 1600 µM: read-out: % inhibition of alpha-amylase at flavonoid concentration 1.6 mM (454 μg/mL); for remaining activity at 11.7 µg/mL / remaining activity at 23.4 µg/mL / remaining activity at 46.9 µg/mL / remaining activity at 93.8 µg/mL / remaining activity at 187.5 µg/mL / remaining activity at 375 µg/mL / remaining activity at 750 µg/mL: read-out: alpha-amylase % control; for inhibition at 11.7 µg/mL / inhibition at 23.4 µg/mL / inhibition at 46.9 µg/mL / inhibition at 93.8 µg/mL / inhibition at 187.5 µg/mL / inhibition at 375 µg/mL / inhibition at 750 µg/mL: read-out: alpha-amylase % inhibition
T2 construct: purchased Sigma; host or cells: porcine pancreas
T2 sequence (P00690 16-511): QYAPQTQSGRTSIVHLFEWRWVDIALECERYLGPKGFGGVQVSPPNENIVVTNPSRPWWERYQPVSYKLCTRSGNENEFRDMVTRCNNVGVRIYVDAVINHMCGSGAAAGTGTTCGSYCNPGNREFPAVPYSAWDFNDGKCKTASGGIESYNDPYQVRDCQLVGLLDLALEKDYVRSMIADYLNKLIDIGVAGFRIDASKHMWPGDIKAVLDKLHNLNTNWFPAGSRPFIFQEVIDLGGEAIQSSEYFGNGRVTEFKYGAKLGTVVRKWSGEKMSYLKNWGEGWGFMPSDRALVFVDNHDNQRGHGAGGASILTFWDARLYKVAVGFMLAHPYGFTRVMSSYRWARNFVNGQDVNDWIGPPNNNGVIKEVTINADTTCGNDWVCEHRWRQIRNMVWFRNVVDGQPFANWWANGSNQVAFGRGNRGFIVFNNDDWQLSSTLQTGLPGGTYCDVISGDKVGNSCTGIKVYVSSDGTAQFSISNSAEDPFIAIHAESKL
Procedure: Alpha-amylase from porcine pancreas, alpha-glucosidase, glucoamylase and substrate (p-nitrophenyl-alpha-maltopentaoside) were purchased from Sigma. In the reaction, alpha-amylase (endo-type enzyme) hydrolysed the substrate into shorter chain glucosides and the auxiliary enzymes (exo-type enzymes) released the chromophore (p-nitrophenol) from the amylase-hydrolyzed malto-polysaccharides. For the assay, alpha-amylase (7.5 U/ml) was added to a substrate solution containing 1 mM p-nitrophenyl-alpha-maltopentaoside, 15 U/ml of alpha-glucosidase and 25 U/ml of glucoamylase in 50 mM HEPES buffer (pH 7.3) containing 3 mM CaCl2 and 40 mM NaCl. The reaction was carried out for 15 min at 37° C. in the presence vs. absence of flavonoids at concentrations ranged from 11.7 to 750 μg/ml. At the end of the incubation, 0.2 M borate, pH 9.8 was added to inactivate the enzymes and liberated p-nitrophenol was measured spectrophotometrically at 405 nm. The relative activity of alpha-amylase was calculated by subtracting reaction blanks containing the substrate, the two axillary enzymes and flavonoids at the same concentrations. The inhibitory activity was expressed as 100 minus relative absorbance difference between tested samples and controls.

COc1cc(-c2cc(=O)c3c(O)cc(O)cc3o2)cc(OC)c1O [Tricin, tricin]
IC50 [1]: 36.3 µM
inhibition at 1600 µM [1]: 100%
remaining activity at 7.8 µg/mL [1]: 97.7%
remaining activity at 15.6 µg/mL [1]: 26.4%
remaining activity at 31.3 µg/mL [1]: 15.6%
remaining activity at 62.5 µg/mL [1]: 6.4%
remaining activity at 125 µg/mL [1]: 0%
remaining activity at 250 µg/mL [1]: 0%
remaining activity at 500 µg/mL [1]: 0%
inhibition at 7.8 µg/mL [1]: 0.3%
inhibition at 15.6 µg/mL [1]: 73.6%
inhibition at 31.3 µg/mL [1]: 84.4%
inhibition at 62.5 µg/mL [1]: 93.6%
inhibition at 125 µg/mL [1]: 100%
inhibition at 250 µg/mL [1]: 100%
inhibition at 500 µg/mL [1]: 100%
IC50 [2]: 30 µM
inhibition at 1600 µM [2]: 100%
remaining activity at 11.7 µg/mL [2]: 40.9%
remaining activity at 23.4 µg/mL [2]: 18.2%
remaining activity at 46.9 µg/mL [2]: 0%
remaining activity at 93.8 µg/mL [2]: 0%
remaining activity at 187.5 µg/mL [2]: 0%
remaining activity at 375 µg/mL [2]: 0%
remaining activity at 750 µg/mL [2]: 0%
inhibition at 11.7 µg/mL [2]: 59.1%
inhibition at 23.4 µg/mL [2]: 81.8%
inhibition at 46.9 µg/mL [2]: 100%
inhibition at 93.8 µg/mL [2]: 100%
inhibition at 187.5 µg/mL [2]: 100%
inhibition at 375 µg/mL [2]: 100%
inhibition at 750 µg/mL [2]: 100%

O=c1cc(-c2ccc(O)c(O)c2)oc2cc(O)cc(O)c12 [Luteolin, luteolin]
remaining activity at 15.6 µg/mL ([1]; flavonoid conc. 15.6 μg/mL): 60.2%
inhibition at 15.6 µg/mL ([1]; flavonoid conc. 15.6 μg/mL): 39.8%
inhibition at 1600 µM [1]: 96%
IC50 ([1]; read-out: IC50 concentration, alpha-glucosidase (converted)): 180 µM
remaining activity at 7.8 µg/mL [1]: 81.4%
remaining activity at 31.3 µg/mL [1]: 65.8%
remaining activity at 62.5 µg/mL [1]: 45.7%
remaining activity at 125 µg/mL [1]: 17.9%
remaining activity at 250 µg/mL [1]: 19.1%
remaining activity at 500 µg/mL [1]: 0%
inhibition at 7.8 µg/mL [1]: 18.6%
inhibition at 31.3 µg/mL [1]: 34.2%
inhibition at 62.5 µg/mL [1]: 54.3%
inhibition at 125 µg/mL [1]: 82.1%
inhibition at 250 µg/mL [1]: 80.9%
inhibition at 500 µg/mL [1]: 100%
remaining activity at 11.7 µg/mL ([2]; flavonoid conc. 11.7 μg/ml): 0%
inhibition at 11.7 µg/mL ([2]; flavonoid conc. 11.7 μg/ml): 100%
remaining activity at 23.4 µg/mL ([2]; flavonoid conc. 23.4 μg/ml): 0%
inhibition at 23.4 µg/mL ([2]; flavonoid conc. 23.4 μg/ml): 100%
remaining activity at 46.9 µg/mL ([2]; flavonoid conc. 46.9 μg/ml): 0%
inhibition at 46.9 µg/mL ([2]; flavonoid conc. 46.9 μg/ml): 100%
remaining activity at 93.8 µg/mL ([2]; flavonoid conc. 93.8 μg/ml): 0%
inhibition at 93.8 µg/mL ([2]; flavonoid conc. 93.8 μg/ml): 100%
remaining activity at 187.5 µg/mL ([2]; flavonoid conc. 187.5 μg/ml): 0%
inhibition at 187.5 µg/mL ([2]; flavonoid conc. 187.5 μg/ml): 100%
remaining activity at 375 µg/mL ([2]; flavonoid conc. 375.0 μg/ml): 0%
inhibition at 375 µg/mL ([2]; flavonoid conc. 375.0 μg/ml): 100%
remaining activity at 750 µg/mL ([2]; flavonoid conc. 750.0 μg/ml): 0%
inhibition at 750 µg/mL ([2]; flavonoid conc. 750.0 μg/ml): 100%
inhibition of alpha-amylase at the lowest concentration tested ([2]; lowest concentration tested (11.7 μg/ml)): inhibiting the enzyme completely
inhibition at 1600 µM [2]: 100%
IC50 ([2]; read-out: IC50 concentration, alpha-amylase (converted)): 20.3 µM

O[C@H]1[C@H](O)[C@@H](O)CN2CC[C@H](O)[C@H]12 [castanospermine, reference compound]
activity of alpha-glucosidase reduced by ([1]; 1 μg/ml, control inhibitor): 32%

O=c1cc(-c2ccc(O)cc2)oc2cc(O)cc(O)c12 [Apigenin, apigenin]
IC50 [1]: 220 µM
remaining activity at 15.6 µg/mL ([1]; flavonoid conc. 15.6 μg/mL): 74.3%
inhibition at 15.6 µg/mL ([1]; flavonoid conc. 15.6 μg/mL): 25.7%
inhibition at 1600 µM [1]: 100%
remaining activity at 7.8 µg/mL [1]: 73.5%
remaining activity at 31.3 µg/mL [1]: 68.4%
remaining activity at 62.5 µg/mL [1]: 50.4%
remaining activity at 125 µg/mL [1]: 29.5%
remaining activity at 250 µg/mL [1]: 0%
remaining activity at 500 µg/mL [1]: 0%
inhibition at 7.8 µg/mL [1]: 26.5%
inhibition at 31.3 µg/mL [1]: 31.6%
inhibition at 62.5 µg/mL [1]: 49.6%
inhibition at 125 µg/mL [1]: 70.5%
inhibition at 250 µg/mL [1]: 100%
inhibition at 500 µg/mL [1]: 100%
remaining activity at 11.7 µg/mL ([2]; flavonoid conc. 11.7 μg/ml): 81%
inhibition at 11.7 µg/mL ([2]; flavonoid conc. 11.7 μg/ml): 19%
remaining activity at 23.4 µg/mL ([2]; flavonoid conc. 23.4 μg/ml): 0%
inhibition at 23.4 µg/mL ([2]; flavonoid conc. 23.4 μg/ml): 100%
remaining activity at 46.9 µg/mL ([2]; flavonoid conc. 46.9 μg/ml): 0%
inhibition at 46.9 µg/mL ([2]; flavonoid conc. 46.9 μg/ml): 100%
remaining activity at 93.8 µg/mL ([2]; flavonoid conc. 93.8 μg/ml): 0%
inhibition at 93.8 µg/mL ([2]; flavonoid conc. 93.8 μg/ml): 100%
remaining activity at 187.5 µg/mL ([2]; flavonoid conc. 187.5 μg/ml): 0%
inhibition at 187.5 µg/mL ([2]; flavonoid conc. 187.5 μg/ml): 100%
remaining activity at 375 µg/mL ([2]; flavonoid conc. 375.0 μg/ml): 0%
inhibition at 375 µg/mL ([2]; flavonoid conc. 375.0 μg/ml): 100%
remaining activity at 750 µg/mL ([2]; flavonoid conc. 750.0 μg/ml): 0%
inhibition at 750 µg/mL ([2]; flavonoid conc. 750.0 μg/ml): 100%
inhibition at 1600 µM [2]: 100%
